Reference: ChEMBL document CHEMBL5579793, “Design of cyclic peptides as novel inhibitors of ICOS/ICOSL interaction” (Bioorg Med Chem Lett, 2024)
Activity calls are given as the source filed them. The rule behind the calls is not given here. Where a SMILES comes first, the peptide text is derived from it. Bridges are numbered along the chain shown (N, C = ends).

Assays:
[1] = molecular target: T1, ICOS-ICOSL (Homo sapiens) (UniProt O75144+Q9Y6W8); experiment: (§1) Inhibition of ICOS/ICOSL (unknown origin) interaction by ELISA method; type: protein assay
[2] = molecular target: T1, ICOS-ICOSL (Homo sapiens); experiment: (§2) Inhibition of ICOS/ICOSL (unknown origin) interaction by TR-FRET assay; type: protein assay
[3] = molecular target: T2, Inducible T-cell costimulator (Homo sapiens, UniProt Q9Y6W8); experiment: Binding affinity to ICOS (unknown origin) assessed as dissociation constant
T2 sequence (Q9Y6W8 whole entry): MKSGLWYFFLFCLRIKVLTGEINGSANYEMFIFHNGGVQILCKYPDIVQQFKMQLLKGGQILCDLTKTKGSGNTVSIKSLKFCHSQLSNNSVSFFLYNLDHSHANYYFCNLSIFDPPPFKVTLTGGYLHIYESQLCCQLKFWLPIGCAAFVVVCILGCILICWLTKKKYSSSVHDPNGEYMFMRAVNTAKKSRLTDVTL

ICOS-ICOSL [4] = molecular target: T3, ICOS-ICOSL (Homo sapiens, UniProt O75144+Q9Y6W8); experiment: as §2; type: protein assay
T3 sequence (O75144 whole entry): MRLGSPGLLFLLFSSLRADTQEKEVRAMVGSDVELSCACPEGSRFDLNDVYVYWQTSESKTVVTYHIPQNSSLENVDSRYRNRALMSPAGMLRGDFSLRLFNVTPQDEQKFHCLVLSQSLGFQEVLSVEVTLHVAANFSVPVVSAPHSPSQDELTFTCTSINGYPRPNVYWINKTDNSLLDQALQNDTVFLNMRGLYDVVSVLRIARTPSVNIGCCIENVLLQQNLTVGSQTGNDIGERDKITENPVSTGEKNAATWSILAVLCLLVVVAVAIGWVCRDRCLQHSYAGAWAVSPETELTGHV
T3 sequence (Q9Y6W8 whole entry): T2 sequence (Q9Y6W8 whole entry)

Homo sapiens [5] = species on record: Homo sapiens; experiment: Inhibition of PD-1/PD-L1 (unknown origin) protein-protein interaction at 50 uM by TR-FRET assay
[6] = Apparent permeability of the compound in human Caco-2 cells across basolateral to apical side; type: ADME, cell-based
[7] = Stability in rat liver microsomes assessed as half life; type: ADME, Microsome
[8] = Stability of the compound in stimulated intestinal fluid assessed as half life at pH 6.5; type: ADME; conditions: simulated intestinal fluid
[9] = Stability in human plasma assessed as parent compound remaining measured after 2 hrs; type: ADME, cell-free; conditions: read-out: Stability
[10] = Lipophilicity, log D of compound at pH 7.4 by shake-flask method; type: physicochemical; conditions: buffer
[11] = Apparent permeability of the compound in human Caco-2 cells across apical to basolateral side; type: ADME, cell-based
Homo sapiens [12] = species on record: Homo sapiens; experiment: Inhibition of VISTA/VSIG-3 (unknown origin) protein-protein interaction at 50 uM by TR-FRET assay
Homo sapiens [13] = species on record: Homo sapiens; experiment: Inhibition of CTLA4/B-7 (unknown origin) protein-protein interaction at 50 uM by TR-FRET assay
ICOS-ICOSL [14] = molecular target: T3, ICOS-ICOSL; experiment: as §1; type: protein assay
[15] = Stability of the compound in stimulated gastric fluid assessed as half life at pH 1.6; type: ADME; conditions: simulated gastric fluid
Homo sapiens [16] = species on record: Homo sapiens; experiment: Inhibition of LAG-3/FGL1 (unknown origin) protein-protein interaction at 50 uM by TR-FRET assay

Row | Structure (SMILES) | inhibition [1] | inhibition [2] | Kd [3] [µM] | IC50 (ICOS-ICOSL [4]) [µM] | inhibition (Homo sapiens [5]) | Papp B→A [6] [×10⁻⁶ cm/s] | half-life [7] [h] | half-life [8] [h] | remaining at 2 h [9] [%] | logD [10] | Papp A→B [11] [×10⁻⁶ cm/s] | inhibition (Homo sapiens [12]) | inhibition (Homo sapiens [13]) | IC50 (ICOS-ICOSL [14]) [µM] | half-life [15] [h] | inhibition (Homo sapiens [16])
1 | CC[C@H](C)[C@@H]1NC(=O)[C@H](CO)NC(=O)[C@H](Cc2ccc(O)cc2)NC(=O)[C@H](Cc2ccc(O)cc2)NC(=O)[C@@H]2CSSC[C@H](NC(=O)[C@H](CC(C)C)NC(=O)[C@@H]3CCCN3C(=O)[C@@H]3CCCN3C1=O)C(=O)N[C@@H](CC(C)C)C(=O)N1CCC[C@H]1C(=O)N[C@@H](Cc1ccccc1)C(=O)NCC(=O)N[C@@H](CCCNC(=N)N)C(=O)N2 (cyclo(CLPFGRCYYSIPPL); disulfide 1-7) | inactive | inactive | 4.47 | – | – | – | – | – | – | – | – | – | – | – | – | –
2 | CC(C)C[C@@H]1NC(=O)[C@H](Cc2ccccc2)NC(=O)[C@H](Cc2ccccc2)NC(=O)[C@@H]2CCCN2C(=O)[C@@H]2CCCN2C(=O)[C@H](Cc2ccc(O)cc2)NC(=O)[C@@H]2CCCN2C(=O)[C@H](C(C)C)NC(=O)[C@@H]2CCCN2C(=O)[C@H](Cc2ccc(O)cc2)NC(=O)[C@@H]2CSSC[C@H](NC1=O)C(=O)N[C@@H](CC(C)C)C(=O)N1CCC[C@H]1C(=O)N[C@@H](Cc1ccccc1)C(=O)N[C@@H](Cc1ccc(O)cc1)C(=O)N2 (cyclo(CLPFYCYPVPYPPFFL); disulfide 1-6) | inactive | – | – | 3.68 | – | – | – | – | – | – | – | – | – | – | – | –
3 | CC(C)C[C@H](NC(=O)[C@@H]1CSSC[C@H](NC(=O)[C@@H](N)Cc2ccc(O)cc2)C(=O)N[C@@H](Cc2ccc(O)cc2)C(=O)N2CCC[C@H]2C(=O)N[C@@H](C(C)C)C(=O)N2CCC[C@H]2C(=O)N[C@@H](Cc2ccc(O)cc2)C(=O)N2CCC[C@H]2C(=O)N2CCC[C@H]2C(=O)N[C@@H](Cc2ccccc2)C(=O)N[C@@H](Cc2ccccc2)C(=O)N[C@@H](CC(C)C)C(=O)N1)C(=O)N[C@@H](Cc1ccccc1)C(=O)N[C@@H](CC(N)=O)C(=O)O (H-YCYPVPYPPFFLCLFN-OH; disulfide 2-13) | – | – | 36.7 | 4.48 | inactive | 10.8 | 18.3 | 20.4 | 98.2 | 2.94 | 6.72 | inactive | inactive | 1.87 | 6.5 | inactive
